From the NIST ThermoML archive (doi:10.1016/j.jct.2012.08.033)
Numbers after ± are expanded uncertainties.

Assay: xn = mol fraction of the nth substance listed
Conditions: Liquid, vibrating tube

C1CCOC1 [tetrahydrofuran] + O
mass density [kg/m3]
Conditions | 78.5 kPa | 100.7 kPa
293.24 K, x2 = 0.3407 | 907.81 ± 2 | 907.93 ± 2
293.24 K, x2 = 0.988 | 995.8 ± 2 | 995.84 ± 2
293.25 K, x2 = 0.9826 | 994.97 ± 2 | 994.99 ± 2
293.25 K, x2 = 0.9921 | 996.53 ± 2 | 996.6 ± 2
293.26 K, x2 = 0.0208 | 888.12 ± 2 | 888.29 ± 2
293.26 K, x2 = 0.0404 | 889.02 ± 2 | 889.18 ± 2
293.26 K, x2 = 0.0872 | 892.05 ± 2 | 892.21 ± 2
293.26 K, x2 = 0.9418 | 990.31 ± 2 | 990.26 ± 2
293.26 K, x2 = 0.9519 | 991.46 ± 2 | 991.41 ± 2
293.26 K, x2 = 0.9573 | 992.11 ± 2 | 992.05 ± 2
293.26 K, x2 = 0.9709 | 993.71 ± 2 | 993.65 ± 2
293.26 K, x2 = 0.9723 | 993.83 ± 2 | 993.77 ± 2
293.27 K, x2 = 0.0269 | 888.46 ± 2 | 888.63 ± 2
293.27 K, x2 = 0.0429 | 889.18 ± 2 | 889.35 ± 2
293.27 K, x2 = 0.0593 | 890.14 ± 2 | 890.31 ± 2
293.27 K, x2 = 0.6092 | 934.46 ± 2 | 934.53 ± 2
293.28 K, x2 = 0.8857 | 981.21 ± 2 | 981.18 ± 2
298.21 K, x2 = 0.3407 | 902.44 ± 2 | 902.65 ± 2
298.22 K, x2 = 0.0872 | 886.71 ± 2 | 886.95 ± 2
298.22 K, x2 = 0.988 | 994.42 ± 2 | 994.44 ± 2
298.22 K, x2 = 0.9921 | 995.23 ± 2 | 995.24 ± 2
298.23 K, x2 = 0.0269 | 883.01 ± 2 | 883.22 ± 2
298.23 K, x2 = 0.9418 | 987.77 ± 2 | 987.8 ± 2
298.23 K, x2 = 0.9723 | 992.08 ± 2 | 992.11 ± 2
298.23 K, x2 = 0.9826 | 993.47 ± 2 | 993.49 ± 2
298.24 K, x2 = 0.0208 | 882.73 ± 2 | 882.93 ± 2
298.24 K, x2 = 0.0593 | 884.65 ± 2 | 884.9 ± 2
298.24 K, x2 = 0.9573 | 989.99 ± 2 | 990.02 ± 2
298.24 K, x2 = 0.9709 | 991.93 ± 2 | 991.95 ± 2
298.25 K, x2 = 0.0429 | 883.9 ± 2 | 883.99 ± 2
298.25 K, x2 = 0.6092 | 929.43 ± 2 | 929.58 ± 2
298.25 K, x2 = 0.9519 | 989.15 ± 2 | 989.18 ± 2
298.26 K, x2 = 0.8857 | 977.6 ± 2 | 977.65 ± 2
298.29 K, x2 = 0.0404 | 883.74 ± 2 | 883.83 ± 2
303.07 K, x2 = 0.3407 | 897.21 ± 2 | 897.4 ± 2
303.09 K, x2 = 0.9418 | 985.17 ± 2 | 985.19 ± 2
303.1 K, x2 = 0.0269 | 877.63 ± 2 | 877.86 ± 2
303.1 K, x2 = 0.0872 | 881.49 ± 2 | 881.71 ± 2
303.1 K, x2 = 0.9519 | 986.82 ± 2 | 986.81 ± 2
303.1 K, x2 = 0.988 | 993 ± 2 | 992.98 ± 2
303.1 K, x2 = 0.9921 | 993.8 ± 2 | 993.78 ± 2
303.11 K, x2 = 0.0404 | 878.23 ± 2 | 878.45 ± 2
303.11 K, x2 = 0.0593 | 879.35 ± 2 | 879.58 ± 2
303.11 K, x2 = 0.9573 | 987.79 ± 2 | 987.78 ± 2
303.11 K, x2 = 0.9723 | 990.22 ± 2 | 990.21 ± 2
303.11 K, x2 = 0.9826 | 991.87 ± 2 | 991.85 ± 2
303.12 K, x2 = 0.0208 | 877.38 ± 2 | 877.61 ± 2
303.12 K, x2 = 0.6092 | 924.49 ± 2 | 924.62 ± 2
303.12 K, x2 = 0.9709 | 990.08 ± 2 | 990.06 ± 2
303.13 K, x2 = 0.0429 | 878.4 ± 2 | 878.63 ± 2
303.13 K, x2 = 0.8857 | 974.05 ± 2 | 974.07 ± 2
308.19 K, x2 = 0.3407 | 891.62 ± 2 | 891.86 ± 2
308.22 K, x2 = 0.0872 | 875.87 ± 2 | 876.14 ± 2
308.22 K, x2 = 0.9418 | 982.23 ± 2 | 982.27 ± 2
308.22 K, x2 = 0.9519 | 984.2 ± 2 | 984.24 ± 2
308.22 K, x2 = 0.9921 | 991.99 ± 2 | 992.01 ± 2
308.23 K, x2 = 0.0269 | 871.92 ± 2 | 872.19 ± 2
308.23 K, x2 = 0.0404 | 872.54 ± 2 | 872.75 ± 2
308.23 K, x2 = 0.0593 | 873.61 ± 2 | 873.88 ± 2
308.23 K, x2 = 0.988 | 991.08 ± 2 | 991.1 ± 2
308.24 K, x2 = 0.0208 | 871.65 ± 2 | 871.93 ± 2
308.24 K, x2 = 0.9723 | 988.08 ± 2 | 988.11 ± 2
308.24 K, x2 = 0.9826 | 989.93 ± 2 | 989.95 ± 2
308.25 K, x2 = 0.6092 | 919.21 ± 2 | 919.38 ± 2
308.25 K, x2 = 0.8857 | 970.11 ± 2 | 970.18 ± 2
308.25 K, x2 = 0.9573 | 985.24 ± 2 | 985.28 ± 2
308.25 K, x2 = 0.9709 | 987.99 ± 2 | 987.82 ± 2
308.26 K, x2 = 0.0429 | 872.71 ± 2 | 872.89 ± 2
313.26 K, x2 = 0.3407 | 886.03 ± 2 | 886.33 ± 2
313.28 K, x2 = 0.0269 | 866.21 ± 2 | 866.56 ± 2
313.28 K, x2 = 0.0872 | 869.29 ± 2 | 869.63 ± 2
313.28 K, x2 = 0.9418 | 979.18 ± 2 | 979.28 ± 2
313.29 K, x2 = 0.0593 | 867.9 ± 2 | 868.25 ± 2
313.29 K, x2 = 0.9519 | 981.33 ± 2 | 981.43 ± 2
313.29 K, x2 = 0.9921 | 990.02 ± 2 | 990.1 ± 2
313.3 K, x2 = 0.0404 | 866.86 ± 2 | 867.21 ± 2
313.3 K, x2 = 0.988 | 989.08 ± 2 | 989.16 ± 2
313.31 K, x2 = 0.9826 | 987.78 ± 2 | 987.87 ± 2
313.32 K, x2 = 0.6092 | 913.96 ± 2 | 914.2 ± 2
313.32 K, x2 = 0.9723 | 985.71 ± 2 | 985.8 ± 2
313.33 K, x2 = 0.9709 | 985.46 ± 2 | 985.55 ± 2
313.34 K, x2 = 0.0208 | 866.07 ± 2 | 866.42 ± 2
313.34 K, x2 = 0.8857 | 966.2 ± 2 | 966.33 ± 2
313.34 K, x2 = 0.9573 | 982.55 ± 2 | 982.65 ± 2
313.35 K, x2 = 0.0429 | 867.1 ± 2 | 867.44 ± 2
